Measurements taken from article PMC7321301, “Characteristics of New Peptides GQLGEHGGAGMG, GEHGGAGMGGGQFQPV, EQGFLPGPEESGR, RLARAGLAQ, YGNPVGGVGH, and GNPVGGVGHGTTGT as Inhibitors of Enzymes Involved in Metabolic Syndrome and Antimicrobial Potential” (Molecules, 2020).
No end group written: not given here.

Key:
pancreatic lipase = target: T1, pancreatic lipase (Homo sapiens, UniProt P16233); test: Pancreatic lipase inhibitory activity (pNPA) and kinetics; type: biochemical; settings: mean ± SD, triplicate
T1 sequence (P16233 17-465): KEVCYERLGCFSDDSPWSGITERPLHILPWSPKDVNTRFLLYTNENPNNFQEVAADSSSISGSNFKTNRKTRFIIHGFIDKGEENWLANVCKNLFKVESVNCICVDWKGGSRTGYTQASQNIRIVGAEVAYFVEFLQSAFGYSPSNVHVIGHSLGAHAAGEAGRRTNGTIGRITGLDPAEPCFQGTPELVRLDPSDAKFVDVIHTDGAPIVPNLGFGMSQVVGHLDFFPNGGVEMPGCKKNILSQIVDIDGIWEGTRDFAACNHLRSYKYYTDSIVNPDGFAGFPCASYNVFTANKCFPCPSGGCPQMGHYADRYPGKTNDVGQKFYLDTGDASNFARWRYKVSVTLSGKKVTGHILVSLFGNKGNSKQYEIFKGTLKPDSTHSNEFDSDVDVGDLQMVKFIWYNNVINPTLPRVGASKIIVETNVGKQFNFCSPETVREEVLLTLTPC
Description: For all inhibitory activity, IC50 was calculated. The IC50 value defined as the concentration of the extract inhibiting 50% of the enzyme activity was determined by measuring the enzyme inhibitory activity and peptide contents in each sample. The IC50 value was calculated from the plotted graph of the inhibition activity for the five different peptide concentrations.
Lipase inhibitory activity was determined with the method described by Jakubczyk et al.. The final volume of the reaction mixture was 150 μL (2 μL of the enzyme, 5 μL of the sample, 142 μL of 100 mM potassium phosphate buffer, pH 7.5, and 1 μL of a 100 mM p-nitrophenyl acetate (pNPA) solution in dimethyl sulfoxide (DMSO). Changes in absorbance at […] were measured using BioTek Microplate Readers.
Substrate solutions (5.0, 10.0, 15.0, and 20.0 mM) were prepared and used to determine the Michaelis constant (Km), the inhibition constant (Ki), and the maximum velocity (Vmax) of enzymes. The kinetic parameters were evaluated by Lineweaver–Burk’s method. The reaction conditions were the same as in the enzyme inhibitory activity assay.

COX-1 = target: T2, COX-1 (Ovis aries, UniProt P05979); test: COX-1 inhibitory activity (COX Activity Assay kit) and kinetics; type: biochemical
T2 sequence (P05979 25-600): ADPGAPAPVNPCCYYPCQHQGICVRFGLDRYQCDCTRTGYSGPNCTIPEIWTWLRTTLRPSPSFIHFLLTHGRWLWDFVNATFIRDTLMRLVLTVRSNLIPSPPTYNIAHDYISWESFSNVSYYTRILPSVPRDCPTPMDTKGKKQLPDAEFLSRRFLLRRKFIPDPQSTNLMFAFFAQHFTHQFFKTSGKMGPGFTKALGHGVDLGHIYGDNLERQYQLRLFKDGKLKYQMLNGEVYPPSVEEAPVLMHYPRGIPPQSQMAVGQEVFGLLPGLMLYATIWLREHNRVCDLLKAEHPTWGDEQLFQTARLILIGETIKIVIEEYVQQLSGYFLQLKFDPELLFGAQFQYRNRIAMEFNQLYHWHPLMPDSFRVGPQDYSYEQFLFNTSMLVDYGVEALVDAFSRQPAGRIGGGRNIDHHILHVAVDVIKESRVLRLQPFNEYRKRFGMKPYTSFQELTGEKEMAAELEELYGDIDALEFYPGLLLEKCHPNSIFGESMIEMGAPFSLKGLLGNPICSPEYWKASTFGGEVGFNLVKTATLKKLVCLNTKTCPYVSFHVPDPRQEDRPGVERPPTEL
Description: For all inhibitory activity, IC50 was calculated. […] The IC50 value was calculated from the plotted graph of the inhibition activity for the five different peptide concentrations. The effect of the peptide on COX-1 and COX-2 was measured using the COX Activity Assay kit from Cayman Chemical (Item No. 760151, Ann Arbor, MI, USA). COX activity was determined according to the instructions provided with the kit. The enzyme activity was assayed by calorimetric measurement of the appearance of oxidized N,N,N′,N′-Tetramethyl-p-phenylenediamine (TMPD) at 590 nm using BioTek Microplate Readers (Epoch™ 2 BioTek, Bad Friedrichshall, Germany). […] The kinetic parameters were evaluated by Lineweaver–Burk’s method. The reaction conditions were the same as in the enzyme inhibitory activity assay.

HECa10 cells [1] = test: Neutral red (NR) test; type: cell-based, murine; settings: 24-h incubation, 0.1–100 µg/mL
Description: (§1) The study was conducted according to the procedure described by Rokicki et al.. HECa10 cells after 80–90% confluence were trypsinized (3 min, 37 °C), centrifuged (300 g, 5 min), counted, and plated in 96-well plates at a concentration of 1 × 10^4 cells/well. Then, 24 h after seeding, cells were washed with phosphate-buffered saline (PBS) solution and culture medium (Dulbecco’s Modified Eagle Medium (DMEM) + 10% fetal bovine serum (FBS) + antibiotics, all from Life Technologies, Warsaw, Poland) was added with test factors in concentrations: 0.1; 1; 5; 10; 50; 100 µg/mL). Then, 24 h after addition of the compounds, proliferation tests (MTT, NR, LDH) were performed. The color intensity was determined using a Fluostar Omega microplate reader. Results are presented as the mean ± SD of 3 independent experiments (n = 12).
The cells were seeded in a 96-well culture plate at a concentration of 1 × 10^4 cells/well. Then, 24 h after seeding, the cells were rinsed twice with PBS (Life Technologies, Poland) and resuspended in fresh growth medium. Peptide fractions were added at concentrations of 0 (control), 0.1, 1, 5, 10, 50, and 100 µg/mL. After 24 h of incubation with the proteins, the uptake of the neutral red (NR kit, Sigma Aldrich, Poznań, Poland,) was assessed. The absorption was measured at a wavelength of 540 nm with the background cutoff at 690 nm (FLUOstar Omega, BMG Labtech GmbH, Ortenberg, Germany). The results are presented as the percentage of the control values (mean ± SD). Each assay was performed in triplicate (n = 18).

HECa10 cells [2] = test: LDH test; type: cell-based, murine; settings: 24-h incubation, 0.1–100 µg/mL
Description: as §1
The cells were seeded in a 96-well culture plate at a concentration of 1 × 10^4 cells/well. Then, 24 h after seeding, the cells were rinsed twice with PBS (Life Technologies, Poland) and resuspended in fresh growth medium. Peptide fractions were added at concentrations of 0 (control), 0.1, 1, 5, 10, 50, and 100 µg/mL. After 24 h incubation with the proteins, activity of released from cells lactate dehydrogenase was assessed (Pierce Ldh Cytotoxicity Assay Kit, Life Technologies, Warsaw Poland).The absorption was measured at a wavelength of 540 nm with the background cutoff at 490 nm (FLUOstar Omega, BMG Labtech GmbH, Ortenberg, Germany). The results are presented as the percentage of the control values (mean ± SD). Each assay was performed in triplicate (n = 18).

Row | Sequence | IC50 (pancreatic lipase) | IC50 (COX-1) | NR test, HECa10 cell count compared to control (HECa10 cells [1]) | LDH activity test, HECa10 cells compared to control (HECa10 cells [2])
1 | GEHGGAGMGGGQFQPV [GV-16, GEHGGAGMGGGQFQPV] | 41.9 µM | 8 µM | no statistically significant differences | no statistically significant differences
2 | GNPVGGVGHGTTGT [GT-14, GNPVGGVGHGTTGT] | 86.1 µM | 12.3 µM | no statistically significant differences | no statistically significant differences
3 | YGNPVGGVGH [YH-10, YGNPVGGVGH] | 107 µM | 17.4 µM | declined statistically significantly | no statistically significant differences
4 | GQLGEHGGAGMG [GG-12, GQLGEHGGAGMG] | 56.6 µM | 7.11 µM | no statistically significant differences | no statistically significant differences
5 | EQGFLPGPEESGR [ER-13, EQGFLPGPEESGR] | 54.8 µM | 4.78 µM | no statistically significant differences | no statistically significant differences
6 | RLARAGLAQ [RQ-9, RLARAGLAQ] | 102 µM | 0.325 µM | no statistically significant differences | no statistically significant differences
